{
  "source": "patent US20240173329A1",
  "about": "“BELVARAFENIB FOR USE IN TREATMENT OF BRAIN CANCERS” (Genentech, Inc., priority 2021, published 2024)",
  "key": {"EPHA8": {"molecular_target": "T1, EPHA8 (Homo sapiens, UniProt P29322)", "T1 sequence (P29322 28-1005)": "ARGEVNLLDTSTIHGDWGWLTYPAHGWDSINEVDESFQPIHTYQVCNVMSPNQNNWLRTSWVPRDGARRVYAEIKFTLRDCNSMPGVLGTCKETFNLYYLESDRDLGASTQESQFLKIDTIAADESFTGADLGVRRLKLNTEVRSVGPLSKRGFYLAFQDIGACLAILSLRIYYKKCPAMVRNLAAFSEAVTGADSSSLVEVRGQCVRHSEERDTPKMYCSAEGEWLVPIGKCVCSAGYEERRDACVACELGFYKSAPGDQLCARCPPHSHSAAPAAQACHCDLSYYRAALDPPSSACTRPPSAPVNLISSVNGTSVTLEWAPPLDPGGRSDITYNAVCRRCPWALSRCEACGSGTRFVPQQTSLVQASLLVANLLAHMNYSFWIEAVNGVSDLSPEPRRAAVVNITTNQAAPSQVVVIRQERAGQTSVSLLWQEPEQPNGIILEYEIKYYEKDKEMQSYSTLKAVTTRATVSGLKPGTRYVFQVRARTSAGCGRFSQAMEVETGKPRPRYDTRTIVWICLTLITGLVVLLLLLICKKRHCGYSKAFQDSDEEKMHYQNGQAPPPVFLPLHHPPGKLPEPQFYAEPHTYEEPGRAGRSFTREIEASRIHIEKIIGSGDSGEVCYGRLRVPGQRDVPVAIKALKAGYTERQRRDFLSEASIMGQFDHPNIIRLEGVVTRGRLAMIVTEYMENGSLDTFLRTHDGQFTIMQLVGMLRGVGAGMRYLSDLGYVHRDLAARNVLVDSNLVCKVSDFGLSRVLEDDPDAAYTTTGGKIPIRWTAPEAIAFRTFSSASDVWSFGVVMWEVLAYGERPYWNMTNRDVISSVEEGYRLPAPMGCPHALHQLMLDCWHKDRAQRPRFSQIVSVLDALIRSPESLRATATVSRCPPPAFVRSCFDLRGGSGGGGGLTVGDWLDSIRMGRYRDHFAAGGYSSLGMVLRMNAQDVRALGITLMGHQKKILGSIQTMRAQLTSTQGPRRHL", "experiment": "panel of 189 kinase assays", "assay_type": "biochemical"}, "[1]": {"tested_on": "A375SM-Luc cells harboring the BRAF^V600 mutation", "experiment": "A375SM_Luc cell brain metastasis mouse model", "assay_type": "in vivo", "settings": "for mOS (median overall survival): vehicle 24.5 days; for day from which clinical signs of debility due to tumor growth occurred: vehicle after day 11", "protocol": "The mouse strain was BALB/c Nude (nu/nu) produced and supplied by Orient Bio Inc., Korea.\nThe mice were kept in conventional animal lab cages for at least one week for acclimation before the start of the experiment. The cages were polysulfone 1291H (W425×D266×H185 mm, Techniplast, Italy). Eight mice were housed in each cage at a temperature of 22±2° C., a relative humidity of 50±20%, a ventilation frequency of 10-15 times/h, a 12 hour light/dark cycle, a light intensity of 150-300 Lux, at least weekly cage replacement. The mice were fed ad libitum Picolab Rodent diet (5053, Lab Diet, USA). Tap water was given ad libitum following UV irradiation and filtration.\nThe cancer cell line was A375SM-Luc harboring the BRAF^V600 mutation. That cell line was deemed suitable for the efficacy study of RAF inhibitors against BRAF^V600 in melanoma.\nThe A375SM-Luc cell line was established as follows. A375SM cells were seeded into 24 well clear flat-bottomed plates with 2.5×10^5 cells/well in MEM medium (Gibco, USA) supplemented with 10% FBS (Gibco, USA). The next day, CMV-Firefly luciferase lentivirus (Cellomics Inc., USA) was diluted in complete medium containing 8 μg/mL polybrene (Sigma Aldrich, St. Louis MO, USA). Cells were centrifuged in the prepared medium for 90 minutes at 800×g, followed by incubation in fresh medium for 2 to 3 days. Stable clones were selected using puromycin, and individual clones were screened for luciferase activity be measuring their light emission with the IVIS® Lumina Series III In Vivo Imaging System (PerkinElmer Inc., USA) after adding 10 μL (15 mg/mL) D-Luciferin (Gold Biotechnology, USA). The in vitro media was MEM 10% FBS. The in vitro culture condition was incubation at 5% CO2 at 37° C.\nThe in vivo cell inoculation was as follows. Mice were anesthetized by intraperitoneal (i.p.) injection of 30 mg/kg Zoletil 50 (Virbac, France) and 10 mg/kg Rompun (Bayer Korea, Korea). Five thousand cells suspended in 10 μL phosphate buffered saline were intracranially injected into the right frontal hemisphere (AP+2.0, ML−1.0, DV+2.0 from the bregma) using a stereotactic fixation device (David Kopf Instruments, USA). Mouse models were produced over two days.\nThe mice were randomized by their tumor burden by BLI (8 mice per group) after 6-7 days from inoculation (implantation). The mice were then dosed with belvarafenib dihydrochloride, 99.6% purity, that was stored at room temperature. Dosing was based on active ingredient free base and was corrected for assay and water content. The dosing vehicle was DMSO (5%), cremophore EL (5%), and deionized water (90%). Belvarafenib for dosing was dissolved in the vehicle.\nBelvarafenib (in groups 2 and 3) and vehicle (in group 1) were dosed at 10 mL/kg (p.o.) once per day (QD) for a duration of 102 days.\nBody weight measurement was performed twice a week during the dosing period. Relative body weight (%) was calculated by: body weight Day X (g)/initial body weight (g)×100 (Day X=body weight measurement day). Tumor burden was measured by bioluminescence imaging (BLI) using a IVIS® Lumina Series III In Vivo Imaging System (PerkinElmer Inc., USA) each week. […] Kaplan-Meier survival curves showing prolonged survival of mice of groups 1 to 3 were plotted from the date of drug administration. The median overall survival rate (mOS) was the amount of time after which 50% of the mice had died and 50% had survived.\nThe data were expressed as means±standard error of the mean (SEM). Statistical analysis was conducted by GraphPad PRISM® Version 6 (GraphPad Software, USA). […] was conducted to evaluate significant differences between the groups. A p value less than 0.05 was considered statistically significant.\nMice were intraperitoneally injected with 15 mg/mL of D-Luciferin on each of days 1, 5, 12, 19, 26, 33, 40, 47, 54, 61, 68, 75, 82, 89, 96, and 103 and evaluated with BLI imaging with an IVIS® Lumina Series III In Vivo Image System (PerkinElmer Inc., USA)."}},
  "data": [
    {"smiles": "Cc1ccc2c(Nc3cccc(Cl)c3F)nccc2c1NC(=O)c1csc2c(N)ncnc12", "note": "[Belvarafenib, 4-amino-N-(1-((3-chloro-2-fluorophenyl)amino)-6-methylisoquinolin-5-yl)thieno[3,2-d]pyrimidine-7-carboxamide]", "values": [
      {"measurement": "inhibition at 1 µM", "setting": "EPHA8", "value": "> 90", "unit": "%"},
      {"measurement": "tumor burden by bioluminescence imaging (BLI)", "setting": "[1]; 5 mg/kg p.o. QD", "value": "more effective tumor inhibition than the vehicle"},
      {"measurement": "Maximum weight loss", "setting": "[1]; 5 mg/kg p.o. QD, day 39", "value": "33.0 (day 39) %"},
      {"measurement": "mOS (median overall survival)", "setting": "[1]; 5 mg/kg p.o. QD", "value": 34.5, "unit": "days"},
      {"measurement": "tumor burden by bioluminescence imaging (BLI)", "setting": "[1]; 15 mg/kg p.o. QD", "value": "markedly delayed tumor growth as compared to the vehicle"},
      {"measurement": "mOS (median overall survival)", "setting": "[1]; 15 mg/kg p.o. QD", "value": 70.0, "unit": "days"},
      {"measurement": "day from which clinical signs of debility due to tumor growth occurred", "setting": "[1]; group 2 (5 mg/kg)", "value": 14, "unit": "days"},
      {"measurement": "day from which clinical signs of debility due to tumor growth occurred", "setting": "[1]; group 3 (15 mg/kg)", "value": 16, "unit": "days"},
      {"measurement": "day of administration from which hair growth showed", "setting": "[1]; groups 2 and 3 (5 and 15 mg/kg)", "value": 7, "unit": "days"}
    ]}
  ]
}
